We go through one molecule from patent US8629240B2, “Peptide ligands for clusterin and uses thereof” (National Research Council of Canada, priority 2009, dated 2014).

The target in the assay is T1, rh-clusterin (Homo sapiens, UniProt P10909).
T1 construct: made in house; host or cells: HEK-293 cells
In words: STD-NMR binding of synthetic peptides to rh-clusterin. The settings on record: ~1:30 protein:peptide, 298K. How it is done:
To confirm direct binding of the peptides of Example 1 to clusterin, the interaction of the synthetic peptides of Example 2 with clusterin was tested using Nuclear Magnetic Resonance Saturation Transfer Difference (STD-NMR; Mayer & Meyer, 2001)
NMR samples were prepared by dissolving 0.15 mM of peptides in 50 mM sodium phosphate buffer, 0.2 mM EDTA, pH 6.5. rh-clusterin (˜1 mg/ml) in 5 mM sodium phosphate buffer, 0.02 mM EDTA, pH 7.4, was added to ˜1:30 protein:peptide ratio.
All NMR experiments were performed at 298K on a Bruker Avance800™ NMR spectrometer equipped with a 5 mm triple-resonance probe with three-axis gradients. Saturation transfer difference (STD) spectra was recorded using WATERGATE version of STD pulse sequence (35) with a 3 s selective saturation pulse applied in the relaxation delay and a 20 ms spinlock pulse with a field strength of 12.25 kHz. The saturation pulse was implemented using a pulse train of 49 ms Gaussian-shaped selective pulse and 1 ms interpulse delay. Each Gaussian-shaped pulse had 1000 points with a 1% truncation and was applied with a field strength of 75.9 Hz. STD spectra were recorded with a spectral width of 16025.64 Hz and 32 K data points. Time domain signals were accumulated with 1024 and 4096 scans for the free and complexed sample, respectively. NMR data were processed using Bruker Xwinnmr 2.6. An exponential weighting function of 7 Hz was applied prior to Fourier transformation and polynomial baseline correction.
NMR signals of peptide P3378 and rh-clusterin were severely overlapped, making it impossible to apply the above saturation pulse exclusively on rh-clusterin resonances without disturbing those of the peptide. In order to identify the binding interactions in the P3378-rh-clusterin complex, a new experimental scheme was implemented by applying the on-resonance saturation pulse at methyl resonances (0.912 ppm) and the off-resonance irradiation at −7.799 ppm (referenced H2O to 4.700 ppm). […]

T1 sequence (P10909 23-227 limits assumed): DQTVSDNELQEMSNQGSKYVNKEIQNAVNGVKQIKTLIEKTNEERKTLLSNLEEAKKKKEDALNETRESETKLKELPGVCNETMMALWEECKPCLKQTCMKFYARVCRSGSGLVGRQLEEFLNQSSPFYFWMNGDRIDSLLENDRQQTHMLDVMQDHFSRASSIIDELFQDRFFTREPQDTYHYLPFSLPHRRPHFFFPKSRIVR
T1 sequence (P10909 228-449 limits assumed): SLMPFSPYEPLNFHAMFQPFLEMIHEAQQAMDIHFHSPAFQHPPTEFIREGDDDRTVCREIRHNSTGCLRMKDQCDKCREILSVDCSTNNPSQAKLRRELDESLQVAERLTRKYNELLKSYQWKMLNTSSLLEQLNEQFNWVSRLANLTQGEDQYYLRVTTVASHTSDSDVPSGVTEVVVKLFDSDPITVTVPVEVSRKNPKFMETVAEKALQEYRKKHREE

In the case of `CC(C)C[C@H](NC(=O)[C@@H]1CCCN1C(=O)[C@@H](N)Cc1c[nH]cn1)C(=O)N[C@@H](CO)C(=O)N[C@@H](CCCCN)C(=O)N[C@@H](Cc1c[nH]cn1)C(=O)N1CCC[C@H]1C(=O)N[C@@H](Cc1ccc(O)cc1)C(=O)N[C@@H](Cc1c[nH]c2ccccc12)C(=O)N[C@@H](CO)C(=O)N[C@@H](CCC(N)=O)C(=O)N1CCC[C@H]1C(=O)N[C@@H](CO)C(=O)NCC(=O)N[C@@H](CO)C(=O)NCC(=O)N[C@@H](CS)C(=O)O` [P3378], the “binding to clusterin by STD-NMR” value is “direct interaction”.
